Assay [1] concerns ppERK1/2. Kind of assay: Immunoblot for dual-phosphorylated ERK1/2 in melanoma cells. The class given is cell-based, human. An excerpt: By way of non-limiting example, inhibition of ERK signaling can be measured by determining the level of dual-phosphorylated ERK1/2 (ppERK1/2) as described in detail elsewhere herein. In brief, the level of ppERK1/2 can be detected by immunoblot assay.

For assay [2], the system named is COLO829. Kind of assay: qPCR of endogenous Wnt target gene AXIN2, COLO829. As to conditions: WNT3A CM, 2 μM PLX4720, 24 hours. The class given is cell-based, human. An excerpt:
(§1) RNA purification and qRT-PCR analysis. RNA was purified using the RNeasy kit following the manufacturer's protocol (Qiagen; Maryland, Md.). cDNA was synthesized using RevertAid™ M-MuLV Reverse Transcriptase (Fermentas; Ontario, CAN). Light Cycler FastStart DNA Master SYBR Green1 (Roche; Mannheim, Germany) was used for real-time PCR as previously described (53). Quantitative PCR results presented in the manuscript are averages of a minimum of three biologic replicates.
(In general: In qPCR the cycle at which signal appears reflects the starting amount.)

The subject of assay [3] is MEL624. Kind of assay: Flow cytometry for active (cleaved) caspase-3, MEL624. The assay is classed as cell-based, human. As to conditions: WNT3A, 2 μM PLX4720, 24 hours. The procedure:
(§2) Flow cytometry for Active Caspase-3. Cells were seeded in a 6-well dish at a density to achieve 90-100% confluence at harvest. 24 hours after seeding, cells were treated with the indicated conditions for the indicated amount of time. At the time of collection, supernatants were collected and pooled with trypsinized cells. Cells were fixed with 4% paraformaldehyde and permeabilized according to vendor's protocol for Cleaved Caspase-3 (Asp175) Antibody (AlexaFluor 488 Conjugate) (catalog #9669) (Cell Signaling, Beverly Mass.). The antibody was used at a final dilution of 1:100. Flow was performed on a BD FACSCanto H, and data analysed with FlowJo 8.8.6 (Tree Star) software. Experiments were performed with biological triplicates and data are representative of at least three independent experiments. For experiments involving siRNAs, cells were reverse transfected with 20 nM siRNA in 6-well dishes in triplicate with RNAiMax according to manufacturer's protocol. 48 hours following transfection, cells were treated with the indicated conditions for 24 hours and then harvested for analysis. Cells were harvested, stained, and analyzed as described above.
On the technique in general: A flow cytometer gives signals particle by particle.

In assay [4] the test system is A2058. Kind of assay: Flow cytometry for active (cleaved) caspase-3, A2058. The class given is cell-based, human. As to conditions: 2 uM PLX4720, 24 hours, in % (unit assumed). The procedure: as §2, with “experiments.” for “experiments. For experiments involving siRNAs, cells were reverse transfected with 20 nM siRNA in 6-well dishes in triplicate with RNAiMax according to manufacturer's protocol. 48 hours following transfection, cells were treated with the indicated conditions for 24 hours and then harvested for analysis. Cells were harvested, stained, and analyzed as described above.”
(§3) For experiments involving siRNAs, cells were reverse transfected with 20 nM siRNA in 6-well dishes in triplicate with RNAiMax according to manufacturer's protocol. 48 hours following transfection, cells were treated with the indicated conditions for 24 hours and then harvested for analysis. Cells were harvested, stained, and analyzed as described above.

The subject of assay [5] is SKMEL5. Kind of assay: Flow cytometry for active (cleaved) caspase-3, SKMEL5. As to conditions: 2 uM PLX4720, 24 hours, in % (unit assumed). The class given is cell-based, human. How it is done: as §2, with “experiments.” for “experiments. For experiments involving siRNAs, cells were reverse transfected with 20 nM siRNA in 6-well dishes in triplicate with RNAiMax according to manufacturer's protocol. 48 hours following transfection, cells were treated with the indicated conditions for 24 hours and then harvested for analysis. Cells were harvested, stained, and analyzed as described above.”
as §3

For assay [6], the system named is A375 cells. Kind of assay: Spheroid assay in three-dimensional collagen matrix. The assay is classed as cell-based, human. How it is done: Spheroid Assay. A375 cells were used for the spheroid assays. Spheroids were formed and implanted in collagen as previously described (54). Spheroids were treated with indicated conditions 30 minutes after collagen polymerization. Images were obtained on a Nikon TiE inverted widefield high-resolution microscope (Nikon Melville, N.Y.).

The test system of assay [7] is human A375 melanoma cells. Kind of assay: Resazurin-based assay for cell viability. Background: The colour change of resazurin is a common sign of viable cells or microbes.
Assay [8] concerns Wnt/β-catenin signaling. Kind of assay: WNT3A-mediated reporter activity in primary melanocytes. The assay is classed as cell-based, human. As to conditions: HEMs.
The subject of assay [9] is A375 cells. Kind of assay: TUNEL assay. The class given is cell-based, human. How it is done:
TUNEL. Glass coverslips were coated with poly-L-lysine in a 24-well dish, rinsed with PBS, and dried. Cells were seeded at a density to achieve 90-100% at harvest. 24 hours after seeding, cells were treated with the indicated conditions and incubated for 24 hours. TUNEL staining was performed according to vendor's protocol (cat#12 156 792 910) (Roche Indianapolis, Ind.). Briefly, media was gently aspirated and cells were fixed in 4% paraformaldehyde for 1 hour at room temperature. Cells were gently rinsed twice with PBS and permeabilized with 0.1% Triton X-100 in 0.1% sodium citrate for 2 minutes on ice. Cells were rinsed twice with PBS, and 40 uL of TUNEL reaction mixture was added directly on top of the slide and incubated for 1 hour at 37° C. in a humidified incubator. Slips were rinsed 3 times and mounted on superfrost plus glass slides (cat#48311-703 VWR West Chester, Pa.) with Prolong Gold anti-fade mounting media containing DAPI (cat# P36931 Invitrogen; Grand Island, N.Y.). Images were obtained on a Nikon TiE inverted widefield high-resolution microscope (Nikon Melville, N.Y.).

Assay [10] concerns AXIN1. Kind of assay: qRT-PCR of AXIN1 mRNA in A375 cells. The class given is cell-based, human. As to conditions: A375, 2 μM PLX4720, 24 hours.
Excerpt: as §1

Each structure is given as a SMILES string.

For `CCCS(=O)(=O)Nc1ccc(F)c(C(=O)c2c[nH]c3ncc(Cl)cc23)c1F` [PLX4720, N-[3-[(5-Chloro-1H-pyrrolo[2,3-b]pyridin-3-yl)carbonyl]-2,4-difluorophenyl]-1-propanesulfonamide], in [1] (A375), the “dual-phosphorylated ERK1/2 (ppERK1/2)” value is recorded as “dose-dependent inhibition”. For the same compound, in [1] (A375, WNT3A and PLX4720 time course), the “time to inhibition of ppERK” value is at most 30 min. The ERK1/2 phosphorylation entry in assay [1] (six established melanoma lines harboring the BRAF^V600E mutation) is “inhibition of ERK1/2 phosphorylation”. In [2], the “SYNERGISTIC WNT ACTIVATION WITH PLX4720?” value was “YES”. Besides, the “SYNERGISTIC APOPTOSIS WITH WNT AND PLX4720?” value in [3] is listed as “YES”. The “cleaved caspase-3-positive cells” value in [4] (AXIN1/2 siRNA, L CM) is recorded as 12.67 ± 0.89; in assay [4] (AXIN1/2 siRNA, W3A CM), 15.07 ± 1.6; in assay [4] (Control siRNA, L CM) it was 3.39 ± 0.17; in assay [4] (Control siRNA, W3A CM), 4.45 ± 0.41; in assay [5] (AXIN1/2 siRNA, L CM), 11.88 ± 0.18; in assay [5] (AXIN1/2 siRNA, W3A CM) it was 13.13 ± 2.7. Besides, the “cleaved caspase-3-positive cells” value in assay [5] (Control siRNA, L CM) is 3.39 ± 0.22; in assay [5] (Control siRNA, W3A CM) it was 4.28 ± 1.2. The spheroid size result in assay [6] (A375:GFP- and A375:WNT3A-derived spheroids, 2 μM PLX4720, 72 hours) was “decreased spheroid size”. Moreover, the “dead cells (EtBr staining)” value in [6] (spheroids expressing WNT3A, 2 μM PLX4720, 24 hours) is given as “detection of dead cells”. Also, the “number of invasive cells” value in [6] (spheroids expressing WNT3A, 2 μM PLX4720, 72 hours) is on record as “dramatic decrease in the number of invasive cells”. Besides, the “cell viability / proliferation (resazurin)” value in assay [7] is “further decreases cell viability”. The Wnt/β-catenin signaling result in assay [8] is recorded as “no detectable effect”. Also, the TUNEL staining entry in assay [9] (A375, agents individually) is on record as “minimal TUNEL-positivity”; in [9] (WNT3A and 2 μM PLX4720, 24 hours), “presence of apoptotic cell death”. Besides, the “AXIN1 gene expression (mRNA)” value in assay [10] was “no transcriptional regulation of AXIN1 gene expression”.
